One compound from ChEMBL document CHEMBL5512613, “Design and synthesis of novel 3-amino-5-phenylpyrazole derivatives as tubulin polymerization inhibitors targeting the colchicine-binding site” (Eur J Med Chem, 2024) can be followed below.

One data set deals with HeLa. The experiment in a line: Antiproliferative activity against human HeLa cells assessed as inhibition of cell growth incubated for 48 hrs by MTT assay. In kind it is functional, cell-based.
The nature of data set [1]: Cytotoxicity against human L02 cells assessed as inhibition of cell growth incubated for 48 hrs by MTT assay. The class given is toxicity, cell-based. (In general: Tetrazolium assays rely on reduction of a dye to a coloured formazan, in cell work by metabolically active cells.)
In data set [2] the target is T1, Tubulin (Homo sapiens) (UniProt P68371+Q9H4B7+P0DPH7+P68366+Q13509+Q71U36+P04350+Q3ZCM7+P07437+P68363+Q9BQE3+Q6PEY2+Q13885+Q9BVA1+Q9BUF5). The experiment in a line: Displacement of [3H]colchicine from tubulin (unknown origin) at 1 uM incubated for 2 hrs by scinitillation proximity assay. The class given is protein-complex assay. On the technique in general: Loss of bound radioactivity is the signal in a displacement assay; it reports binding, not function.

Data set [3] concerns MCF7. Description: Induction of cell cycle arrest in human MCF7 cells assessed as proportion of cells at G1 phase at 12.5 nM incubated for 24 hrs by PI staining based flow cytometry (reference value: 64.5%). The class given is functional. Background: In flow cytometry, cells or beads pass a laser one at a time.
The subject of data set [4] is MCF7. Description: Induction of cell cycle arrest in human MCF7 cells assessed as proportion of cells at G2 phase at 12.5 nM incubated for 24 hrs by PI staining based flow cytometry (reference value: 14.4%). The class given is functional.
In data set [5] the test system is MCF7. Description: Induction of cell cycle arrest in human MCF7 cells assessed as proportion of cells at S phase at 12.5 nM incubated for 24 hrs by PI staining based flow cytometry (reference value: 21.1%). In kind it is functional.
Data set [6] deals with MCF7. Description: Induction of cell cycle arrest in human MCF7 cells assessed as proportion of cells at G1 phase at 25 nM incubated for 6 hrs by PI staining based flow cytometry (reference value: 64.5%). The class given is functional.
Data set [7] relates to MCF7. Description: Induction of cell cycle arrest in human MCF7 cells assessed as proportion of cells at S phase at 25 nM incubated for 6 hrs by PI staining based flow cytometry (reference value: 21.1%). The class given is functional.
Data set [8] has as its system MCF7. Description: Induction of cell cycle arrest in human MCF7 cells assessed as increase in cyclin B1 protein expression at 6.25 to 50 nM incubated for 24 hrs by western blot analysis. In kind it is functional, cell-based. As to conditions: dose 6.25-50 nM.
Data set [9] concerns MCF7. Description: Induction of cell cycle arrest in human MCF7 cells assessed as increase in p21 protein expression at 6.25 to 50 nM incubated for 24 hrs by western blot analysis. The note with it: dose 6.25-50 nM. In kind it is functional, cell-based.
For data set [10], the target named is T1, Tubulin (Homo sapiens). Description: Displacement of [3H]colchicine from tubulin (unknown origin) at 5 uM incubated for 2 hrs by scinitillation proximity assay. The class given is protein-complex assay.
The subject of data set [11] is MCF7. Description: Induction of apoptosis in human MCF7 cells assessed as decrease in Bcl-2 protein expression at 6.25 to 50 nM incubated for 24 hrs by western blot analysis. In kind it is functional, cell-based. As to conditions: dose 6.25-50 nM.
For a further data set, the system named is HUVEC. Description: Anti-vascular activity in human HUVEC cells assessed as reduction in number of loops formed at 6.25 to 50 nM incubated for 6 hrs by Matrigel based inverted fluorescence microscopy. The class given is functional, cell-based. As to conditions: dose 6.25-50 nM.
The test system of data set [12] is MCF7. The experiment in a line: Antitumor activity against human MCF7 cells xenografted in BALB/c mouse assessed as inhibition of tumor growth by measuring decrease in tumor weight at 5 mg/kg, ip administered every 3 days for 21 days. The class given is functional. The note with it: MCF7, 504 h, time 21 day, read-out: TGI.
The subject of data set [13] is MCF7. Description: Induction of apoptosis in human MCF7 cells assessed as increase in cleaved caspase-9 protein expression at 6.25 to 50 nM incubated for 24 hrs by western blot analysis. The class given is functional, cell-based. The note with it: dose 6.25-50 nM.

Calls of active or inactive are those of the source. No cut-off for these calls is given here.

As for `COc1cc(C(=O)n2nc(N)cc2-c2ccc(C)cc2)cc(OC)c1OC`, the IC50 – broadly, the point on the concentration scale where inhibition reaches its midpoint – with HeLa came out at 110 nM. Moreover, the IC50 at 48 h in data set [1] was 2730 nM. Also, the inhibition (in general, the share of the control response that was lost under treatment) on Tubulin (Homo sapiens) [2] turned out to be 68.4%; on Tubulin (Homo sapiens) [10], 91.4%. The Activity was 45.1% in the data set with MCF7 [3]; 39.2% in the data set with MCF7 [4]; 15.7% with MCF7 [5]; 31.3% with MCF7 [6]; 22% with MCF7 [7]. For the same compound, the outcome in the data set with MCF7 [8], in the data set with MCF7 [9], with MCF7 [11], with HUVEC and in the data set with MCF7 [13] was Active. Besides, the inhibition in vivo at 5 mg/kg with MCF7 [12] stood at 27%.
